Source: paper PMC2993763 (Journal of natural products, 2010)
Several values for one entry are separate records, joined by “and”; a condition that tells them apart may be missing. Equal values may be shown once.

Tests used:
[1] = test system: P-388 lymphocytic leukemia; settings: administered both ip and iv; cited from earlier work
[2] = cited from earlier work
[3] = test system: HT-29 human colon cancer cell line; test: Cytotoxicity assay; assay type: cell-based; settings: HT-29 cells, three days incubation, SRB stain

**Q.** Which results are given for `COC(=O)[C@H]1[C@@H](O)[C@@]2(O)c3c(OC)cc(O[C@@H]4O[C@@H]([C@H](O)CO)CO[C@H]4OC)cc3O[C@@]2(c2ccc(OC)cc2)[C@@H]1c1ccccc1` [Compound 7, silvestrol]?
**A.** activity in the P-388 lymphocytic leukemia test system in vivo [1]: showed activity; activity in the in vivo hollow fiber assay [2]: active; ED50, cytotoxicity HT-29 [3]: 0.0007 µM

**Q.** For `COC(=O)[C@H]1[C@@H](O)[C@@]2(O)c3c(OC)cc(O[C@@H]4O[C@@H]([C@@H](O)CO)CO[C@H]4OC)cc3O[C@@]2(c2ccc(OC)cc2)[C@@H]1c1ccccc1` [Compound 8, episilvestrol (5‴-epi-silvestrol)], which “ED50, cytotoxicity HT-29” value [3] is on record?
**A.** 0.001 µM

**Q.** With `COC(=O)[C@H]1[C@@H](O)[C@@]2(O)c3c(OC)cc(O[C@@H]4O[C@@H]([C@@H](O)CO)CO[C@@H]4OC)cc3O[C@@]2(c2ccc(OC)cc2)[C@@H]1c1ccccc1` [Compound 2, 2‴,5‴-diepi-silvestrol] as the molecule, how does the “ED50, cytotoxicity HT-29” value [3] read?
**A.** 1.1 µM and 1.07 µM

**Q.** With `COC(=O)[C@H]1[C@@H](O)[C@@]2(O)c3c(OC)cc(O[C@@H]4O[C@@H]([C@H](O)CO)CO[C@@H]4OC)cc3O[C@@]2(c2ccc(OC)cc2)[C@@H]1c1ccccc1` [Compound 1, 2‴-epi-silvestrol] as the molecule, how does the “ED50, cytotoxicity HT-29” value [3] read?
**A.** 2.3 µM and 2.29 µM
